Converted amounts (≈) assume the structure as drawn. Like-named read-outs stand apart in the source and are kept apart here. Where a SMILES comes first, the peptide text is derived from it. Where no end group is shown, it is not given here. [ ]: non-standard residue; d: D form. Orn = NCCC[C@H](N)C(=O)O; Dab = NCC[C@H](N)C(=O)O; Dap = NC[C@H](N)C(=O)O

These results are taken from article PMC6023086, “Improving the Activity of Trp-Rich Antimicrobial Peptides by Arg/Lys Substitutions and Changing the Length of Cationic Residues” (Biomolecules, 2018).

The subject of the assay is Escherichia coli ATCC 25922. The assay is classed as cell-based. The procedure:
The antibacterial activity of the Tritrp-derived peptides and other AMPs was assessed against E. coli ATCC 25922, as a representative of Gram-negative bacteria, incubated in Mueller-Hinton broth media (Table 2). […] Arg-to-Lys mutations were correlated with a decrease in activity for almost all peptides. […] The lack of sensitivity of the activity of the Tritrp3 peptide to the nature of the positively charged residues prompted a more detailed study of the structure-activity relationship. Tritrp7 and Tritrp8 are analogs of Tritrp3 where only a single Pro residue is mutated by Ala. These mutations are known to alter the 3D structure of the peptides when interacting with sodium dodecyl sulfate (SDS) micelles, specifically reducing the helicity of the original Tritrp3 peptide (Table 1).
The antibacterial activity for the peptides in this study against E. coli ATCC 25922 was determined by the broth microdilution method. Briefly, E. coli cells at 5 × 10^5 cfu/mL, obtained from a single colony culture, were incubated in Mueller Hinton broth (MHB) media (Sigma Aldrich, St. Louis, MO, USA) in the presence of two-fold dilution of peptides (0–256 µM) in 96-well polypropylene microtiter plates (Sigma Aldrich, St. Louis, MO, USA). The plates were incubated at 37 °C for 16 h, and the minimal inhibitory concentration was determined after incubation as the minimal peptide concentration at which cell growth was not observed.

Setting [1] is: E. coli ATCC 25922, Mueller-Hinton broth, 5 × 10^5 cfu/mL, 37 °C, 16 h, run in triplicate, range of all three experiments.

`CC[C@H](C)[C@H](N)C(=O)N[C@@H](CC(C)C)C(=O)N1CCC[C@H]1C(=O)N[C@@H](Cc1c[nH]c2ccccc12)C(=O)N[C@@H](CCCCN)C(=O)N[C@@H](Cc1c[nH]c2ccccc12)C(=O)N1CCC[C@H]1C(=O)N[C@@H](Cc1c[nH]c2ccccc12)C(=O)N[C@@H](Cc1c[nH]c2ccccc12)C(=O)N1CCC[C@H]1C(=O)N[C@@H](Cc1c[nH]c2ccccc12)C(=O)N[C@@H](CCCNC(=N)N)C(=O)N[C@@H](CCCNC(=N)N)C(N)=O` [Indolicidin, reference compound] registered an MIC (ATCC 25922, 16 h) of 8 µM (≈ 15.3 µg/mL).

In turn, `CC(C)C[C@H](NC(=O)[C@H](Cc1ccccc1)NC(=O)[C@@H]1CCCN1C(=O)[C@H](Cc1c[nH]c2ccccc12)NC(=O)[C@H](Cc1c[nH]c2ccccc12)NC(=O)[C@H](Cc1c[nH]c2ccccc12)NC(=O)[C@@H]1CCCN1C(=O)[C@H](Cc1ccccc1)NC(=O)[C@H](CCNC(=N)N)NC(=O)[C@H](CCNC(=N)N)NC(=O)[C@@H](N)C(C)C)C(=O)N[C@@H](CCNC(=N)N)C(=O)N[C@@H](CCNC(=N)N)C(N)=O` [Tritrp–Agb] gave an MIC (ATCC 25922, 16 h) of 4 µM (≈ 7.38 µg/mL).

On to `CC(C)C[C@H](NC(=O)[C@H](Cc1ccccc1)NC(=O)[C@@H]1CCCN1C(=O)[C@H](Cc1c[nH]c2ccccc12)NC(=O)[C@H](Cc1c[nH]c2ccccc12)NC(=O)[C@H](Cc1c[nH]c2ccccc12)NC(=O)[C@@H]1CCCN1C(=O)[C@H](Cc1ccccc1)NC(=O)[C@H](CCCNC(=N)N)NC(=O)[C@H](CCCNC(=N)N)NC(=O)[C@@H](N)C(C)C)C(=O)N[C@@H](CCCNC(=N)N)C(=O)N[C@@H](CCCNC(=N)N)C(N)=O` [Tritrp–Arg], for which the MIC (ATCC 25922, 16 h) lay within 2 to 4 µM.

`CC(C)C[C@H](NC(=O)[C@H](Cc1ccccc1)NC(=O)[C@@H]1CCCN1C(=O)[C@H](Cc1c[nH]c2ccccc12)NC(=O)[C@H](Cc1c[nH]c2ccccc12)NC(=O)[C@H](Cc1c[nH]c2ccccc12)NC(=O)[C@@H]1CCCN1C(=O)[C@H](Cc1ccccc1)NC(=O)[C@H](CCN)NC(=O)[C@H](CCN)NC(=O)[C@@H](N)C(C)C)C(=O)N[C@@H](CCN)C(=O)N[C@@H](CCN)C(N)=O` [Tritrp–Dab] (H-V[Dab][Dab]FPWWWPFL[Dab][Dab]-NH2) registered a minimum inhibitory concentration (MIC) (ATCC 25922, 16 h) of 4 to 8 µM.

Compound `CC(C)C[C@H](NC(=O)[C@H](Cc1ccccc1)NC(=O)[C@@H]1CCCN1C(=O)[C@H](Cc1c[nH]c2ccccc12)NC(=O)[C@H](Cc1c[nH]c2ccccc12)NC(=O)[C@H](Cc1c[nH]c2ccccc12)NC(=O)[C@@H]1CCCN1C(=O)[C@H](Cc1ccccc1)NC(=O)[C@H](CN)NC(=O)[C@H](CN)NC(=O)[C@@H](N)C(C)C)C(=O)N[C@@H](CN)C(=O)N[C@@H](CN)C(N)=O` [Tritrp–Dap] (H-V[Dap][Dap]FPWWWPFL[Dap][Dap]-NH2) showed a minimal inhibitory concentration (MIC) (ATCC 25922, 16 h) of 4 µM (≈ 6.48 µg/mL).

Regarding `CC(C)C[C@H](NC(=O)[C@H](Cc1ccccc1)NC(=O)[C@@H]1CCCN1C(=O)[C@H](Cc1c[nH]c2ccccc12)NC(=O)[C@H](Cc1c[nH]c2ccccc12)NC(=O)[C@H](Cc1c[nH]c2ccccc12)NC(=O)[C@@H]1CCCN1C(=O)[C@H](Cc1ccccc1)NC(=O)[C@H](CCCN)NC(=O)[C@H](CCCN)NC(=O)[C@@H](N)C(C)C)C(=O)N[C@@H](CCCN)C(=O)N[C@@H](CCCN)C(N)=O` [Tritrp–Orn] (H-V[Orn][Orn]FPWWWPFL[Orn][Orn]-NH2), the MIC (ATCC 25922, 16 h) is reported as 16 µM (≈ 27.7 µg/mL).

Compound `CC(C)C[C@H](NC(=O)[C@H](Cc1ccccc1)NC(=O)[C@@H]1CCCN1C(=O)[C@H](Cc1c[nH]c2ccccc12)NC(=O)[C@H](Cc1c[nH]c2ccccc12)NC(=O)[C@H](Cc1c[nH]c2ccccc12)NC(=O)[C@@H]1CCCN1C(=O)[C@H](Cc1ccccc1)NC(=O)[C@H](CCCCNC(=N)N)NC(=O)[C@H](CCCCNC(=N)N)NC(=O)[C@@H](N)C(C)C)C(=O)N[C@@H](CCCCNC(=N)N)C(=O)N[C@@H](CCCCNC(=N)N)C(N)=O` [Tritrp–hArg] came in with an MIC (ATCC 25922, 16 h) of 4 µM (≈ 7.83 µg/mL).

For “FPVTWKWWKWWKG-NH2 [PuroA–Lys, reference compound]”, the minimal inhibitory concentration (MIC) under setting [1] is 8 µM.

Consider FPVTWRWWRWWRG-NH2 [PuroA–Arg], for which the minimum inhibitory concentration (MIC) under setting [1] lay in the range of 8 to 16 µM.

“GIGRWLHSARRFGRAFVGEIMNS [Magainin2-F5W–Arg]” displayed an MIC (ATCC 25922, 16 h) of 8 µM.

Regarding ILPWKWPWWPWKK-NH2 [Indolicidin–Lys], for the setting “ATCC 25922, 16 h”, the minimum inhibitory concentration (MIC) is 16 µM.

Turning to VKKFAWWWAFLKK-NH2 [Tritrp3–Lys], the MIC (ATCC 25922, 16 h) was found to be 2 µM.

For VKKFAWWWPFLKK-NH2 [Tritrp7–Lys], the MIC (ATCC 25922, 16 h) worked out at 32 µM.

For the compound VKKFPWWWAFLKK-NH2 [Tritrp8–Lys], where the note is “ATCC 25922, 16 h”, the MIC is 4 µM.

Turning to VKKFPWWWPFLKK-NH2 [Tritrp–Lys], the minimal inhibitory concentration (MIC) (ATCC 25922, 16 h) was determined as 16 µM.

For VRRFAWWWAFLRR-NH2 [Tritrp3–Arg], the MIC (ATCC 25922, 16 h) is 2 µM.

VRRFAWWWPFLRR-NH2 [Tritrp7–Arg] had an MIC (ATCC 25922, 16 h) of 8 µM.

Consider VRRFPWWWAFLRR-NH2 [Tritrp8–Arg], for which the MIC (ATCC 25922, 16 h) fell in the range of 2 to 4 µM.

As a reminder, the MIC is the smallest concentration in the dilution series that meets the test's criterion for growth inhibition. Higher therefore signals a need for much substance.
